The subject of assay [1] is PERSN SPEEDWELL
The experiment in a line: Test E. The format is in vivo, Veronica persica.

Assay [2] concerns JET RAPE. The experiment in a line: Test E. The format is in vivo, Brassica napus cv. Jet Neuf.
Assay [3] relates to BLACKGRASS
The experiment in a line: Test E. Type of assay: in vivo, Alopercurus mysuroides. From the text:
Seeds of the following crops and weeds are sown into 15 cm pots containing Sassafras sandy loam soil: wheat (Triticum aestivum cv. Park), barley (Hordeum vulgare cv. Bonanza), sugarbeet (Beta vulgaris cv. USH-11), rapeseed (Brassica napus cv. Jet Neuf), black nightshade (Solanum nigrum), chickweed (Stellaria media), lambsquarter (Chenopodium album), Galium aparine, knotweed (Polygonum aviculare), Kochia scoparia, Matricaria indora, redroot pigweed (Amaranthus retroflexus), smartweed (Polygonum persicaria), speedwell (Veronica persica), wild buckwheat (Polygonum convolvulus), wild mustard (Brassica spp.), wild radish (Raphanus raphanistrum), annual bluegrass (PO annua), annual ryegrass (Lolium multiflorum), blackgrass (Alopercurus mysuroides), green foxtail (Setaria viridis), and wild oats (Avena fatua). Compounds are formulated in a nonphytotoxic solvent and applied to the plants as a foliar spray or applied to the soil surface. Plants are treated at two stages: preemergence, or postemergence when the sugarbeets are at the 2-3 true leaf stage. Plants are grown in a temperature-controlled greenhouse for the duration of the test.
Weed control and crop injury are evaluated visually at 3-4 weeks after compound application, using a scale of 0 to 100%, where 0=no injury and 100=complete death of the plant. All plants are rated with respect to untreated plants (checks) grown in the greenhouse under identical conditions to the treated plants.

Assay [4] has as its system ANN. BLUEGRASS
The experiment in a line: Test E. The format is in vivo, PO annua.

In assay [5] the test system is BONANZA BARLEY. The experiment in a line: Test E. The format is in vivo, Hordeum vulgare cv. Bonanza.
Assay [6] has as its system GIANT FOXTAIL. Nature of the assay: Test D. Type of assay: in vivo, Setaria faberii.
Assay [7] relates to WILLMS SOYBEANS
Nature of the assay: Test D. Type of assay: in vivo, Glycine max.

In assay [8] the test system is REDROOT PIGWEED. The experiment in a line: Test D. Type of assay: in vivo, Amaranthus retroflexus.
Assay [9] relates to GREEN FOXTAIL. The experiment in a line: Test D. The format is in vivo, Setaria viridis.
The subject of assay [10] is VELVETLEAF
Nature of the assay: Test D. Type of assay: in vivo, Abutilon theophrasti. The method, then:
The Corn and Sorghum Herbicide Test included the following species in both the preemergence and postemergence evaluations:
Postemergence plantings were grown in Sassafras sandy loam soil. Corn and soybeans were grown in separate 25 cm diameter containers. Sorghum and the seven grass weed species were grown in two 18 cm diameter containers, 4 species per container. The seven broadleaf weed species were also grown in two 18 cm diameter containers, 4 species in one container, 3 species in the second container. One additional planting of corn in an 18 cm diameter container was made. The soil surface of this additional container of corn was covered with the absorbent, perlite, before spray treatment so that test chemicals would enter the plant only via the foliage. The plants were grown 10-21 days, dependent upon the species and then sprayed postemergence with the test chemicals dissolved in a nonpytotoxic solvent.
Preemergence plantings were grown in fertilized Tama silt loam soil. These plantings are identical to those described in the postemergence section, with the exception of the corn planting having perlite covering the soil surface. These plantings were made the day of or the day before spraying the test chemicals dissolved in a nonphytotoxic solvent.
Treated plants and controls were maintained in the greenhouse for 2 to 4 weeks. Visual planting response ratings were made on a percentage scale of 0 to 100 in comparison with a control where 0=no injury, and 100=death.

Assay [11] has as its system FALL PANICUM. The experiment in a line: Test D. Type of assay: in vivo, Panicum dichotomiflorum.

Turning to `C=C(c1ccccc1)C(O)(Cn1cncn1)c1ccc(F)cc1F` (stereo not drawn) [Example 52, 2-(2,4-Difluorophenyl)-3-phenyl-1-(1H-1,2,4-triazol-1-yl)-3-buten-2-ol], the plant response is listed as 40% in assay [1] (POSTEMERGENCE 0064 GM/HA); 30% in assay [1] (POSTEMERGENCE 0125 GM/HA); 60% in assay [1] (POSTEMERGENCE 0250 GM/HA); 90% in assay [1] (POSTEMERGENCE 0500 GM/HA); 100% in assay [1] (PREEMERGENCE 0250 GM/HA); 0% in [2] (POSTEMERGENCE 0064 GM/HA). In addition, the plant response in assay [2] (POSTEMERGENCE 0125 GM/HA) worked out at 0%; in assay [2] (POSTEMERGENCE 0250 GM/HA), 20%; in assay [2] (POSTEMERGENCE 0500 GM/HA) it was 40%; in [2] (PREEMERGENCE 0250 GM/HA) it was 20%; in assay [3] (POSTEMERGENCE 0064 GM/HA), 0%; in assay [3] (POSTEMERGENCE 0125 GM/HA) it was 0%. The plant response in assay [3] (POSTEMERGENCE 0250 GM/HA) amounted to 20%; in assay [3] (POSTEMERGENCE 0500 GM/HA), 60%; in assay [3] (PREEMERGENCE 0250 GM/HA), 20%; in assay [4] (POSTEMERGENCE 0064 GM/HA) it was 30%; in [4] (POSTEMERGENCE 0125 GM/HA), 40%; in [4] (POSTEMERGENCE 0250 GM/HA), 60%. Also, the plant response stood at 70% in assay [4] (POSTEMERGENCE 0500 GM/HA); 100% in assay [4] (PREEMERGENCE 0250 GM/HA); 0% in [5] (POSTEMERGENCE 0064 GM/HA); 20% in [5] (POSTEMERGENCE 0125 GM/HA); 20% in assay [5] (POSTEMERGENCE 0250 GM/HA); 40% in assay [5] (POSTEMERGENCE 0500 GM/HA). The compound also came in with a plant response in assay [5] (PREEMERGENCE 0250 GM/HA) of 100%.

In the case of `C=C(c1ccccc1)C(O)(Cn1cncn1)c1ccc(Cl)cc1Cl` (stereo not drawn) [Example 50, 2-(2,4-Dichlorophenyl)-3-phenyl-1-(1H-1,2,4-triazol-1-yl)-3-buten-2-ol], the plant response in assay [6] (POSTEMERGENCE 0250 GM/HA) was determined as 0%; in [6] (POSTEMERGENCE 0500 GM/HA) it was 0%; in assay [6] (PREEMERGENCE 0064 GM/HA), 20%; in assay [6] (PREEMERGENCE 0125 GM/HA) it was 65%; in assay [6] (PREEMERGENCE 0250 GM/HA), 75%; in [6] (PREEMERGENCE 0500 GM/HA) it was 85%. For the same compound, the plant response is on record as 35% in [7] (POSTEMERGENCE 0250 GM/HA); 65% in assay [7] (POSTEMERGENCE 0500 GM/HA); 0% in assay [7] (PREEMERGENCE 0064 GM/HA); 0% in assay [7] (PREEMERGENCE 0125 GM/HA); 0% in [7] (PREEMERGENCE 0250 GM/HA); 20% in assay [7] (PREEMERGENCE 0500 GM/HA). Besides, the plant response worked out at 65% in [8] (POSTEMERGENCE 0250 GM/HA); 95% in assay [8] (POSTEMERGENCE 0500 GM/HA); 0% in [8] (PREEMERGENCE 0064 GM/HA); 40% in assay [8] (PREEMERGENCE 0125 GM/HA); 85% in assay [8] (PREEMERGENCE 0250 GM/HA); 100% in assay [8] (PREEMERGENCE 0500 GM/HA). Besides, the plant response in assay [9] (POSTEMERGENCE 0250 GM/HA) is 0%; in [9] (POSTEMERGENCE 0500 GM/HA), 0%; in [9] (PREEMERGENCE 0064 GM/HA), 0%; in assay [9] (PREEMERGENCE 0125 GM/HA) it was 30%; in assay [9] (PREEMERGENCE 0250 GM/HA), 50%; in assay [9] (PREEMERGENCE 0500 GM/HA), 85%. Also, the plant response in [10] (POSTEMERGENCE 0250 GM/HA) is given as 0%; in assay [10] (POSTEMERGENCE 0500 GM/HA) it was 25%; in [10] (PREEMERGENCE 0064 GM/HA), 0%; in assay [10] (PREEMERGENCE 0125 GM/HA), 25%; in assay [10] (PREEMERGENCE 0250 GM/HA) it was 40%; in assay [10] (PREEMERGENCE 0500 GM/HA), 65%. For the same compound, the plant response in assay [11] (POSTEMERGENCE 0250 GM/HA) is given as 20%; in [11] (POSTEMERGENCE 0500 GM/HA), 35%; in assay [11] (PREEMERGENCE 0064 GM/HA) it was 20%; in assay [11] (PREEMERGENCE 0125 GM/HA), 35%; in assay [11] (PREEMERGENCE 0250 GM/HA), 60%; in assay [11] (PREEMERGENCE 0500 GM/HA) it was 95%.

Regarding `C=C(c1ccc(Cl)cc1Cl)C(O)(Cn1cncn1)c1ccccc1F` (stereo not drawn) [Example 107], the plant response in assay [1] (PREEMERGENCE 0250 GM/HA) was 100%; in [2] (PREEMERGENCE 0250 GM/HA), 30%; in assay [3] (PREEMERGENCE 0250 GM/HA) it was 20%; in assay [4] (PREEMERGENCE 0250 GM/HA), 20%; in assay [5] (PREEMERGENCE 0250 GM/HA), 80%.

For the origin of these results see patent US4965280A, “Antifungal carbinols” (E. I. Du Pont de Nemours and Company, priority 1989, dated 1990).
